Structure (SMILES) | melting point
CC(C)c1ccc(NS(=O)(=O)c2ccc3c(c2)CCC(CNC[C@H](O)c2cccnc2)O3)cc1 (stereo in doubt) (hydrate or solvate) | 104 to 106 °C
O=c1n(CCCC2CCCC2)nnn1-c1ccc(NS(=O)(=O)c2ccc3c(c2)CCC(CN(C[C@H](O)c2cccc(Cl)c2)C[C@H](O)c2cccc(Cl)c2)O3)cc1 (stereo partly shown) (hydrate or solvate) | 110 to 115 °C (dec.)
Nc1ccc([C@@H](O)CNCC2CCc3cc(S(=O)(=O)Nc4ccc(Cl)cc4)ccc3O2)cn1 (stereo in doubt) | 95 °C (dec.)

Continued, values first:

melting point | Structure (SMILES)
90 to 92 °C | O=c1n(CCCC2CCCC2)ccn1-c1ccc(NS(=O)(=O)c2ccc3c(c2)CCC(CNC[C@H](O)c2cccnc2)O3)cc1 (stereo in doubt)
99.3 to 99.7 °C | Nc1ccc([C@@H](O)CNC[C@@H]2CCc3cc(S(=O)(=O)Nc4ccc(-n5nnn(CCCC6CCCC6)c5=O)cc4)ccc3O2)cn1
94 to 95 °C | Nc1ccc([C@@H](O)CNC[C@H]2CCc3cc(NS(=O)(=O)c4ccc(-n5nnn(CCCC6CCCCC6)c5=O)cc4)ccc3O2)cn1
93 to 95 °C | O=c1n(CCCC2CCCC2)nnn1-c1ccc(NS(=O)(=O)c2ccc3c(c2)CCC(CNC[C@H](O)c2cccnc2)O3)cc1 (stereo partly shown) (hydrate or solvate)

Reference: patent publication US6903218B2, “Sulfonamide substituted chroman derivatives” (Bayer Pharmaceuticals Corporation, priority 1997, dated 2005)
